The values that follow come from patent publication US11471508B2, “HMGB1 antagonist treatment of diabetic peripheral neuropathy” (THE FEINSTEIN INSTITUTES FOR MEDICAL RESEARCH, priority 2019, dated 2022).

“Also recorded” adds a separate entry of the source. Read-outs that look alike come from different tables or passages of the source.

A short description of series [1]: Pharmacokinetics after intravenous administration at 1 mg/kg in male Sprague-Dawley rats (LC-MS). To be noted: Mean.
In series [2] the test system is CCI-induced neuropathic pain. The experiment in a line: Chronic constriction injury of the sciatic nerve (CCI) neuropathic pain model. The format is in vivo, rat.
Series [3] is described as follows: Degradation in rat plasma and whole blood. The format is in vitro ADME.
Series [4] is classed as in vivo. To be noted: single-dose, rats.
Series [5] deals with DAMPs (CIRP, SAA, PEDF, HSP 70, HSP90, H2A)-induced TNF secretion. The series can be described thus: DAMPs-induced TNF secretion in human macrophages. Format: cell-based. The settings on record: 16 hours.
Series [6] has as its system HMGB1-induced TNF release. The series can be described thus: HMGB1-induced TNF release in human primary macrophages (ELISA). Format: cell-based. To be noted: FIG. 17A.
Method: For all of these studies, TNF released was measured using an ELISA.
In series [7] the test system is APAP-induced liver injury. The experiment in a line: APAP-induced liver injury model. Format: in vivo, mouse.
The next series concerns STZ-induced diabetes. The series can be described thus: STZ-induced diabetes. Format: in vivo. To be noted: repetitive administration, 500 μg/mouse. How it is done:
In Example 21, the effect of selective HMGB1-TLR4/MD-2 inhibition in STZ-induced diabetes was evaluated. Increased levels of HMGB1 have been reported in both diabetic patients and animal models. For example, elevated expression of HMGB1 is found in the retinas of diabetic patients and rat models with retinopathy. ([…]., Upregulation of RAGE and its ligands in proliferative retinal disease, Experimental Eye Research, 2006; 82(5): 807-815; Yu Y., The role of high mobility group box 1 (HMGB-1) in the diabetic retinopathy inflammation and apoptosis, International Journal of Clinical and Experimental Pathology, 2015; 8(6): 6807). […] (Dasu M. […] Based on this literature, tests were conducted on the effects of […] (SEQ ID NO: 1) and […] on STZ-induced diabetes in mice. Mice were administered repetitive administration of […] (500 μg/mouse). […] Repetitive administration of […] was therefore shown to be beneficial in STZ-induced diabetes. […] (*: P<0.05 vs. PBS group. N=6-8 mice per group).

The nature of another series: Oral bioavailability. To be noted: in vivo.
The nature of series [8]: Stability under acidic conditions (pH=2), LC-MS. Format: physicochemical. The settings on record: pH=2, two hours.
For series [9] the following is noted: male, Sprague-Dawley, rat, in vivo.
Series [10] deals with PAMPs (LPS, PGN, AGE and Poly I:C)-induced TNF release. The series can be described thus: PAMPs-induced TNF release in human macrophages. The format is cell-based. The settings on record: LPS 4 ng/ml, poly I:C 50 μg/ml, PGN 5 μg/ml, S100A12 50 μg/ml; 16 hours. The method, then:
TNF released was measured.

The next series can be described thus: in vivo. To be noted: male, Sprague-Dawley, rat, iv, 1 mg/kg, AUCtest.
In series [11] the test system is liver ischemia and reperfusion injury. The series can be described thus: Warm liver ischemia and reperfusion (I/R) model. The format is in vivo, mouse. The settings on record: 6 hours after reperfusion, vs vehicle control. How it is done: […] (SEQ ID NO: 1) (or vehicle control) was administered intraperitoneally at 500 μg/mouse at the time of I/R surgery and euthanized 6 hours later. Serum levels of ALT and AST were reduced in […] (SEQ ID NO: 1)-treated group vs. vehicle controls. *: P<0.05 vs. I/R group. n=5-7 mice/group. […] (SEQ ID NO: 1)-treated mice as compared to vehicle control (neutrophil infiltration, arrow). n=3-5 mice per group.

Series [12] has as its system TNF release stimulated by LPS, PGN, Poly I:C, CpG DNA or S100 A12. The settings on record: cited from earlier work.
Series [13] concerns HMGB1-induced TNF release. The settings on record: cited from earlier work.
The test system of series [14] is APAP-induced liver injury. The settings on record: cited from earlier work.
Series [15] has as its system liver ischemia and reperfusion injury. The settings on record: cited from earlier work.

`NC(=O)N(CCC(=O)O)NC(=O)[C@H](CO)NC(=O)[C@H](CO)NC(=O)N(N)Cc1ccccc1` [K883]: the Plasma concentration in series [1] (0.50 hr) is 2913 ng/mL; in series [1] (1.0 hr), 1091 ng/mL; in [1] (2.0 hr) it was 135 ng/mL; in series [1] (4.0 hr), 16.6 ng/mL; in series [1] (8.0 hr), 1.52 ng/mL; in series [9] (0.5 hr), 2500 ng/mL. Besides, the Plasma concentration in [9] (1 hr) amounted to 1300 ng/mL; in series [9] (2 hr) it was 130 ng/mL; in [9] (6 hr) it was 5.10 ng/mL; in [9] (8 hr), 2.01 ng/mL. The “Paw Withdrawal Latency (sec), CCI” value in series [2] (0 hours post treatment, K883 800 μg/rat or 2g7 300 μg/rat IP) came to 4.1 ± 1.0 s; in series [2] (2 hours post treatment), 4.3 ± 1.2 s; in series [2] (6 hours post treatment), 6.0 ± 0.6 s; in series [2] (24 hours post treatment), 5.0 ± 0.5 s. Further, in series [2] (800 μg/rat IP once a day for 3 days, Hargreaves, von Frey), the “mechanical and thermal hypersensitivity” value was “ameliorated both mechanical and thermal hypersensitivity; also recorded: improved CCI-induced thermal and mechanical hypersensitivity”. Besides, the “tolerance to repeated treatment” value in [2] (800 μg/rat IP once daily for three days, 2 weeks) is given as “did not develop tolerance”. In addition, in series [2] (CCI rats), the thermal hypersensitivity entry is on record as “ameliorated the thermal hypersensitivity”. In series [2] (DRGs), the “CCI-induced CXCL1 and TNF expression (DRGs)” value was “reduce CCI-induced CSCL1 and TNF expression”. Further, the “CCI-induced CXCL1, TNF and IL-1β expression (spine)” value in series [2] (spine) was “reduce CCI-induced CSCL1, TNF and IL-1β expression”. Also, the “degradation after incubating 120 minutes” value in series [3] was “not degraded”. In series [4], the tolerability entry was “well-tolerated”. Further, the “TNF secretion induced by other DAMPs” value in series [5] is given as “is not inhibited”. The “HMGB1-induced TNF secretion” value in series [6] is “causes inhibition”. In addition, in series [7] (APAP 350 mg/kg, K883 50 μg/mouse IP at 2 and 7 hours, 24 hours post-APAP, vs vehicle), the “liver necrosis (H&E)” value is given as “reduced liver necrosis”. Further, the “mice surviving 2 weeks post-APAP” value in series [7] (APAP 400 mg/kg, 50 μg/mouse IP once-a-day for 5 days from 2 hours post-APAP, control group 8) is listed as 14 mice out of 15. In addition, in the series on STZ-induced diabetes, the insulitis result was “reduces insulitis”. Also, the weight gain entry in the series with STZ-induced diabetes is “improves weight gain”. Besides, the hyperglycemia result with STZ-induced diabetes (vs AI5779 or PBS controls) is “delays hyperglycemia”. Besides, in the series “Oral bioavailability”, the oral bioavailability result is on record as “low”. In series [8], the “stability to acid hydrolysis” value is on record as “resistant to acid hydrolysis”. The “PAMPs-induced TNF release” value in [10] is listed as “failed to inhibit other PAMPS; also recorded: does not inhibit other PAMPs”. Also, in “in vivo”, the AUC turned out to be 3770 ng·h/mL. Besides, in [11], the “liver inflammation (H&E, neutrophil infiltration)” value is on record as “reduced inflammation”.

Regarding `NC(=O)[C@H](CCC(=O)O)NC(=O)[C@H](CO)NC(=O)[C@H](CO)NC(=O)[C@@H](N)Cc1ccccc1` [P5779], the “TNF release in macrophages stimulated by LPS, PGN, Poly I:C, CpG DNA or S100 A12” value in [12] is on record as “not suppress TNF release”. Also, in series [13], the “HMGB1-induced TNF release from macrophages” value is recorded as “inhibit HMGB1-induced TNF release from macrophages in a concentration-dependent manner”. For the same compound, the “serum ALT” value in series [14] (500 ugs/mouse) was “significant reductions in ALT”. Also, the “liver necrosis (H&E)” value in series [14] (APAP 350 mg/kg, P5779 50 or 500 μg/mouse IP at 2 and 7 hours, vs scrambled control peptide) is listed as “reduced liver necrosis”. In addition, the “percent survival (2 weeks) post-APAP” value in series [14] (APAP 400 mg/kg, 500 μg/mouse IP once a day for 5 days) is on record as “significantly improved”. In addition, the “serum levels of ALT and AST” value in series [15] (500 μg/mouse IP at time of I/R surgery, 6 hours) is given as “reduced”. For the same compound, the “liver inflammation (H&E, neutrophil infiltration)” value in series [15] (6 hours after reperfusion, vs vehicle control) was “reduced inflammation”.
